Data as given in the Kinase Knowledgebase extract (Sharma et al. 2016).
Where “and” joins values, the source holds several entries; their conditions need not be identical. Equal values may be shown once.

How the values were obtained:
[1] = molecular target: EGFR (Human), P00533 [Inhibition of EGFR Dependent Proliferation of HCC827(.Delta.746-750) cells]; experiment: Cell-Based Assay
[2] = molecular target: EGFR (human), P00533 [WT]; conditions: a431
[3] = molecular target: EGFR (Human), P00533 [T790M/L858R]; experiment: Cell-Based Assay; conditions: h1975
[4] = molecular target: EGFR (Human), P00533 [Assessment of Phosphorylation of EGFR(.Delta.746-750) in HCC827 Cells]; experiment: Cell-Based Assay
[5] = molecular target: EGFR (Human), P00533 [T790M/L858R]; experiment: Cell-Based Assay; conditions: h1975; remark: listed apart in the source
[6] = molecular target: EGFR (human), P00533 [WT]; experiment: Cell-Based Assay; conditions: a431

Sequence of EGFR (human), P00533 [WT] (P00533 whole entry, looked up): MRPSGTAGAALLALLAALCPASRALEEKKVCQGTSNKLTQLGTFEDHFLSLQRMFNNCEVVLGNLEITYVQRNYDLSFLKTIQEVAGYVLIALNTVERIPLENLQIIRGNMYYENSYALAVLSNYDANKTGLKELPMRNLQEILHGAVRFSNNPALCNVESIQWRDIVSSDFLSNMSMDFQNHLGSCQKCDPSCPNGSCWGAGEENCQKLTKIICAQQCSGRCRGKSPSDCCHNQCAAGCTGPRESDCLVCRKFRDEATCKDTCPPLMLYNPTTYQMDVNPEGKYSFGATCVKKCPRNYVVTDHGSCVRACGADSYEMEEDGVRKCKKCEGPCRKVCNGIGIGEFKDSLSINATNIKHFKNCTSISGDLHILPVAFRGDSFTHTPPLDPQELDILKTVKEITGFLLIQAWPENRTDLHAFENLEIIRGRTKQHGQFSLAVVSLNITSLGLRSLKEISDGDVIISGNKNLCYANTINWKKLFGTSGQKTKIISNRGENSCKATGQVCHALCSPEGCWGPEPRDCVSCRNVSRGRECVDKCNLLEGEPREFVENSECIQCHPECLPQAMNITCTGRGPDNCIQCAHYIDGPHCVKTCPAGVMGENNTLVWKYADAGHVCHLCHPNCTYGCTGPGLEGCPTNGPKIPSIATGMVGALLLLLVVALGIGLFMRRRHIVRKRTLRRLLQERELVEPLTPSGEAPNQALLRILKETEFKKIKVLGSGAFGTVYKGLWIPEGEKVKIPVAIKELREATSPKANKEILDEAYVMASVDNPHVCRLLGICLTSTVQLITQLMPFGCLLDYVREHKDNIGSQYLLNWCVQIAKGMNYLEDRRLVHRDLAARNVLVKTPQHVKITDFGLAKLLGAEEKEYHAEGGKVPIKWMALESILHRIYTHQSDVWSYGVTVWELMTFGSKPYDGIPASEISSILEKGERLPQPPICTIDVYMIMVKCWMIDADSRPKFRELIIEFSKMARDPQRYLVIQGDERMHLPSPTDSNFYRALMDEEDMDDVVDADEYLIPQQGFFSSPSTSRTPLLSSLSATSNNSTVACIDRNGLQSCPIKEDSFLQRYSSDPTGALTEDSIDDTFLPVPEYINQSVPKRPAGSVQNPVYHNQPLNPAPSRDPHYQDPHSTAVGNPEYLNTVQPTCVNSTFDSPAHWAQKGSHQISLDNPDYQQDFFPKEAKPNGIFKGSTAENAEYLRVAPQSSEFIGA
Sequence of EGFR (Human), P00533 [Inhibition of EGFR Dependent Proliferation of HCC827(.Delta.746-750) cells] (P00533 whole entry, looked up, stated change not applied): as the sequence (P00533 whole entry, looked up) above
Sequence of EGFR (Human), P00533 [Assessment of Phosphorylation of EGFR(.Delta.746-750) in HCC827 Cells] (P00533 whole entry, looked up, stated change not applied): as the sequence (P00533 whole entry, looked up) above
Sequence of EGFR (Human), P00533 [T790M/L858R] (P00533 whole entry T790M/L858R, looked up): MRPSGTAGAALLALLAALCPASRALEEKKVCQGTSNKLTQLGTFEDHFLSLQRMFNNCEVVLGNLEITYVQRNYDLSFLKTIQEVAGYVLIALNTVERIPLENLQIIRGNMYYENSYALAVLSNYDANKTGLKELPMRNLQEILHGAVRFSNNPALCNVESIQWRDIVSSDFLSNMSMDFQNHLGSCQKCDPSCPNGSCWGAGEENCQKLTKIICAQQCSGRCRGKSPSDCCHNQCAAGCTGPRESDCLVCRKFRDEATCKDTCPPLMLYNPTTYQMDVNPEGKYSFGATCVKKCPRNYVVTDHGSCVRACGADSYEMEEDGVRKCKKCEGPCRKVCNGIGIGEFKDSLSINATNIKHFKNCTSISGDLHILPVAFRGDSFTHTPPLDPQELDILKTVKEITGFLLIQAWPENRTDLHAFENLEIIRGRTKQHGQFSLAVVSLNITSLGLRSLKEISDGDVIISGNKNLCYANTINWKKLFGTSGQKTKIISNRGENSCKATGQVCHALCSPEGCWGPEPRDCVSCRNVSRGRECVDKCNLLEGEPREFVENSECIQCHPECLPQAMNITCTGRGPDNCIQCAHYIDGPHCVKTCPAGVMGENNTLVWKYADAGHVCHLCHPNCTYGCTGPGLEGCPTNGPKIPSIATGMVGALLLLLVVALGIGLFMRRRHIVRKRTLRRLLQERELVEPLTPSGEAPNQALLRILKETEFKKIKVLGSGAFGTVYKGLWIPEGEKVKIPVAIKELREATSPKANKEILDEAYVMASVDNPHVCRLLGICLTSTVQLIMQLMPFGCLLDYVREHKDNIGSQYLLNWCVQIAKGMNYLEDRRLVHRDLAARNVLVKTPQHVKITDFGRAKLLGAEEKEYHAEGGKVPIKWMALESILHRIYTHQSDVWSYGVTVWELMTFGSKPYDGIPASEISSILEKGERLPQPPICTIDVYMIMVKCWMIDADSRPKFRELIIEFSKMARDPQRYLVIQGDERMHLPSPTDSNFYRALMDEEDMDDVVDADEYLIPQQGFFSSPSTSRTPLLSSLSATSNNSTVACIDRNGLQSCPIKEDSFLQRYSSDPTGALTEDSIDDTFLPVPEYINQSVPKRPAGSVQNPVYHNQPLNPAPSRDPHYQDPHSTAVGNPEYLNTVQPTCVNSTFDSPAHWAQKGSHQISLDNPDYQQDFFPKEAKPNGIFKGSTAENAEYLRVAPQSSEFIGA

Structure (SMILES)	IC50 [1]	IC50 [2] [nM]	IC50 [3] [nM]	IC50 [4] [nM]	IC50 [5] [nM]	IC50 [6] [nM]
C=CC(=O)Nc1cccc(-n2c(=O)cc(C)c3cnc(Nc4cn(C)nc4Cl)nc32)c1	30 nM	2870	16			
C=CC(=O)Nc1cccc(-n2c(=O)cc(C)c3cnc(Nc4ccc(N5CCN(C)CC5)cc4OC)nc32)c1				8		
C=CC(=O)Nc1cccc(-n2c(=O)cc(C)c3cnc(Nc4cc(C)nn4C)nc32)c1			762			
C=CC(=O)Nc1cccc(-n2c(=O)cc(C)c3cnc(Nc4ccc(OCCN(C)C)cc4Cl)nc32)c1	46 nM	832	4.7			
C=CC(=O)Nc1cccc(-n2c(=O)cc(C)c3cnc(Nc4ccc(N(C)CCN(C)C)cc4C)nc32)c1	124 nM	1150	9			
C=CC(=O)Nc1cccc(-n2c(=O)cc(C)c3cnc(Nc4cnn(C(C)C)c4)nc32)c1			101			
C=CC(=O)Nc1cccc(-n2c(=O)cc(C)c3cnc(Nc4ccc(OCCN(C)C)cc4)nc32)c1	17 nM and 10 nM	1030	9			
C=CC(=O)Nc1cccc(-n2c(=O)cc(C)c3cnc(Nc4cn(C5CCN(C)CC5)nc4C)nc32)c1.C=CC(=O)Nc1cccc(-n2c(=O)cc(C)c3cnc(Nc4cnn(C5CCN(C)CC5)c4C)nc32)c1	1050 nM	1820	310			
C=CC(=O)Nc1cccc(-n2c(=O)ccc3cnc(Nc4cn(C)nc4C)nc32)c1	2 nM		7			
C=CC(=O)Nc1cccc(-n2c(=O)cc(C)c3cnc(Nc4cnn(CCN(C)C)c4)nc32)c1	305 nM		162			
C=CC(=O)Nc1cccc(-n2c(=O)cc(C)c3cnc(Nc4ccc(N(C)CCN(C)C)cc4Cl)nc32)c1	21 nM	3100	13			
C=CC(=O)Nc1cccc(-n2c(=O)cc(C)c3cnc(Nc4ccc(N(C)CCN(C)C)cc4)nc32)c1	23 nM		8			
C=CC(=O)Nc1cccc(-n2c(=O)cc(C)c3cnc(Nc4ccc(OCCN(C)C)cc4F)nc32)c1	76 nM	1340	51			
C=CC(=O)Nc1cccc(-n2c(=O)cc(C)c3cnc(Nc4ccc(N5CCN(C)CC5)c(F)c4)nc32)c1	86 nM	1260	28			
C=CC(=O)Nc1cccc(-n2c(=O)cc(C)c3cnc(Nc4ccc(O[C@H]5CCN(C)C5)cc4OC)nc32)c1		2110	10.3			
C=CC(=O)Nc1cccc(-n2c(=O)cc(C)c3cnc(Nc4ccc(N(C)CCN5CCCC5=O)cc4OC)nc32)c1	401 nM	4240	108			
C=CC(=O)Nc1cccc(-n2c(=O)cc(C)c3cnc(Nc4ccnn4CC)nc32)c1			911			
C=CC(=O)Nc1cccc(-n2c(=O)c(OC)cc3cnc(Nc4ccc(N5CCN(C)CC5)cc4OC)nc32)c1	61 nM	201	272			
C=CC(=O)Nc1cccc(-n2c(=O)cc(C)c3cnc(Nc4ccc(OCCOC)cc4)nc32)c1	249 nM	2410	42			
C=CC(=O)Nc1cccc(-n2c(=O)cc(C)c3cnc(Nc4cccc(F)c4)nc32)c1			714			
C=CC(=O)Nc1cccc(-n2c(=O)ccc3cnc(Nc4ccc(NC5CN(CCF)C5)cc4OC)nc32)c1				5		

Structure (SMILES)	IC50 [1]	IC50 [2] [nM]	IC50 [3] [nM]	IC50 [4] [nM]	IC50 [5] [nM]	IC50 [6] [nM]
C=CC(=O)Nc1cccc(-n2c(=O)cc(C)c3cnc(Nc4ccc(OCCN(C)C)cc4OC)nc32)c1	28 nM	2400	4	17	4	511
C/C=C/C(=O)Nc1cccc(-n2c(=O)cc(C)c3cnc(Nc4ccc(OCCN(C)C)cc4OC)nc32)c1	1480 nM	24800	870			
C=CC(=O)Nc1cccc(-n2c(=O)cc(C)c3cnc(Nc4ccc(N(C)CCN5CCCC5)cc4OC)nc32)c1	272 nM	1410	128			
C=CC(=O)Nc1cccc(-n2c(=O)ccc3cnc(Nc4ccc(N5CCN(C)CC5)cc4OC)nc32)c1				3.4		
C=CC(=O)Nc1cccc(-n2c(=O)cc(C)c3cnc(Nc4ccc(N(C)CCN(C)C)cc4OC)nc32)c1	22 nM	1400	8	24	7.8	689
C=CC(=O)Nc1cccc(-n2c(=O)cc(C)c3cnc(Nc4ccc(N5CCC(C(C)(C)O)CC5)cc4)nc32)c1	401 nM	6670	176			
C=CC(=O)Nc1cccc(-n2c(=O)c(Cc3ccccc3)cc3cnc(Nc4ccc(N5CCN(C)CC5)cc4OC)nc32)c1	18 nM	250	4			
C=CC(=O)Nc1cccc(-n2c(=O)cc(C)c3cnc(Nc4cn(C)nc4C(F)(F)F)nc32)c1			53			
C=CC(=O)Nc1cccc(-n2c(=O)cc(C)c3cnc(Nc4ccc(N(C)CCN(C)C)cc4OC(F)F)nc32)c1	83 nM	884	24			
C=CC(=O)Nc1cccc(-n2c(=O)cc(C)c3cnc(Nc4cn(C)nc4C)nc32)c1	22 nM	1250	16			
C=CC(=O)Nc1cccc(-n2c(=O)cc(C)c3cnc(Nc4cnn(C)c4)nc32)c1	77 nM	16600	62			
C=CC(=O)Nc1cccc(-n2c(=O)cc(C)c3cnc(Nc4cn([C@H]5CCN(C)C5)nc4C)nc32)c1	49 nM	1280	18			
C=CC(=O)Nc1cccc(-n2c(=O)cc(C)c3cnc(Nc4ccc(C5CCNCC5)cc4)nc32)c1			180			
C=CC(=O)N1CC[C@H](Cn2c(=O)cc(C)c3cnc(Nc4ccc(N5CCN(C)CC5)cc4OC)nc32)C1			175			
C/C=C/C(=O)Nc1cccc(-n2c(=O)cc(C)c3cnc(Nc4ccc(N(C)CCN(C)C)cc4OC)nc32)c1	1370 nM	18000	336			
C=CC(=O)Nc1cccc(-n2c(=O)cc(C)c3cnc(Nc4ccc(N5CCN(C(C)=O)CC5)cc4Cl)nc32)c1	236 nM	4270	9			
C=CC(=O)Nc1cccc(-n2c(=O)cc(C)c3cnc(Nc4ccc(N5CCN(C)CC5)c(C)c4)nc32)c1	36 nM	653	5.8			
C=CC(=O)Nc1cccc(-n2c(=O)cc(C)c3cnc(Nc4ccc(OCCCN(C)C)cc4)nc32)c1	159 nM	1550	27			
C=CC(=O)Nc1cccc(-n2c(=O)cc(C)c3cnc(Nc4ccc(C5CCN(C)CC5)cc4)nc32)c1	27 nM		11			
C=CC(=O)Nc1cccc(-n2c(=O)cc(C)c3cnc(Nc4ccc(N(C)CCO)cc4OC)nc32)c1	483 nM	1690	35			
C=CC(=O)Nc1cccc(-n2c(=O)c(OC)c(C)c3cnc(Nc4ccc(N5CCN(C)CC5)cc4OC)nc32)c1	41 nM	1390	10			
